# Activity calls are given as the source filed them.
# Tests used:
# [1] = target: Heat shock protein HSP 90-alpha (Homo sapiens, UniProt P07900); assay: Luminescence-based dose response biochemical high throughput screening assay for inhibitors of the Heat Shock Protein 90 (HSP90). [Related pubchem assays: 1831 (Summary AID.), 1846 (Confirmation screen.), 1789 (Primary screen.)]
# [2] = cytotoxicity in U-251 CNS tumor cells – cell-based, Alamar Blue fluorescence, 8/24/48 h, dry powder, HRAS target identification, dose response (AID 720605); type: functional
# [3] = cytotoxicity in SR immunoblastic lymphoma cells – cell-based, CellTiter-Glo ATP luminescence, 8-48 h, dry powder, mechanism study for HRAS target identification, late-stage follow-up (AID 720608); type: functional
# [4] = cytotoxicity in mouse C2C12 myoblasts – cell-based, CellTiter-Glo ATP luminescence, 8/24/48 h, dry powder, cytotoxicity control for HRAS target identification, dose response (AID 720603); type: functional
# [5] = cytotoxicity in LOX IMVI melanoma cells – cell-based, CellTiter-Glo ATP luminescence, 8/24/48 h, dry powder, HRAS target identification, dose response (AID 720602); type: functional
# [6] = cytotoxicity in CCRF-CEM lymphoblastic leukemia cells – cell-based, CellTiter-Glo ATP luminescence, 8/24/48 h, dry powder, HRAS target identification, dose response (AID 720607); type: functional
# [7] = cytotoxicity in SNB-19 cells – cell-based, CellTiter-Glo ATP luminescence, 8-48 h, dry powder, mechanism study for HRAS target identification, late-stage follow-up (AID 720611); type: functional
# [8] = cytotoxicity in SNB-19 CNS tumor cells – cell-based, Alamar Blue fluorescence, 8/24/48 h, dry powder, HRAS target identification, dose response (AID 720600); type: functional
# [9] = time-course viability loss in HT-29 cells – cell-based, CellTiter-Glo, multiple timepoints, dry powder, HRas target identification project, dose response (AID 720598); type: functional
# [10] = cells; type: functional, cell-based; conditions: INS-1E
# [11] = IC50 of insulin release inhibition, rat insulinoma INS-1E line, 5 mM glucose, cell-based (AID 1117331); type: functional
# [12] = fluconazole-exposed Candida albicans growth modulators – fluorescence, retest, confirmation (AID 2467); type: functional, cell-based
# [13] = NIH-3T3 fibroblast cytotoxicity, dose response, cytotoxicity control, cell-based, fluorescence, Alamar Blue, secondary assay (AID 2327); type: functional;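 note: NIH-3T3 mouse fibroblasts cultured with fluconazole at 8 µg/mL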
# [14] = target: Induced myeloid leukemia cell differentiation protein Mcl-1 (Homo sapiens, UniProt Q07820); assay: blockers of MCL1 binding to BIM peptide – biochemical, fluorescence polarization, BIM-BH3 peptide, 1536-well, dose response (AID 2217)
# Induced myeloid leukemia cell differentiation protein Mcl-1, sequence (Q07820 whole entry): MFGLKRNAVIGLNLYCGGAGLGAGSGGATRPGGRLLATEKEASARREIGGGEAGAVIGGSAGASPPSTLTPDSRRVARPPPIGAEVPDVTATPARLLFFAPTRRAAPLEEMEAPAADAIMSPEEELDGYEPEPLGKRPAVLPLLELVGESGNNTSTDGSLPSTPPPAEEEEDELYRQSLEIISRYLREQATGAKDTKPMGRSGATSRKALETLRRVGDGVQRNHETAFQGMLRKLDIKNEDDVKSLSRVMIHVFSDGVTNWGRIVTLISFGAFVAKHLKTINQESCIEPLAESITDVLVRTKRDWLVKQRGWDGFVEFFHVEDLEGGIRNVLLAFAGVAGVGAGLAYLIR
# [15] = target: Bcl-2-like protein 1 (Homo sapiens, UniProt Q07817); assay: blockers of BCLXL peptide binding – biochemical, fluorescence polarization, 1536-well, selectivity assay for MCL1 inhibitor project, dose response (AID 2218)
# Bcl-2-like protein 1, sequence (Q07817 whole entry): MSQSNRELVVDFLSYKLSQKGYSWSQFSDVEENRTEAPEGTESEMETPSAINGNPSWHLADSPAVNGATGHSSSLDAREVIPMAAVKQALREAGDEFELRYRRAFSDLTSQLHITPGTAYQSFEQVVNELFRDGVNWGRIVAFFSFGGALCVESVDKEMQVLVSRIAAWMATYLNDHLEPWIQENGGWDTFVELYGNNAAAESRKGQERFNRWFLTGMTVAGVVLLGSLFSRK
# [16] = target: T1, Tyrosine-protein phosphatase non-receptor type 7 (Homo sapiens, UniProt P35236); assay: HePTP tyrosine phosphatase activity blockers – biochemical, absorbance, leukemia target, primary screen (AID 521); type: functional
# T1 sequence (P35236 whole entry): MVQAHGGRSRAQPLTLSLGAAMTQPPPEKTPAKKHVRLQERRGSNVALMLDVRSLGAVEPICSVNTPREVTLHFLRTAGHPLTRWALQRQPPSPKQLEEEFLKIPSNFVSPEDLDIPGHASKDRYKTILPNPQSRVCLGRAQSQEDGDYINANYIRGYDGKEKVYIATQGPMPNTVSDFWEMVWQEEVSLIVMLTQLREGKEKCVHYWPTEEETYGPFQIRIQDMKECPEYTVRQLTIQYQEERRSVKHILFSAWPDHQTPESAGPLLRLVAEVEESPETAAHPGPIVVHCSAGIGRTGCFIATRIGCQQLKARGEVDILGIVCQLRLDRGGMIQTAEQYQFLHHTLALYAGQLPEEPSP
# [17] = blockers of bursicon-stimulated LGR2 cAMP reporter – cell-based, HEK293, CRE-luciferase reporter, cherry pick, set 2, dose response (AID 743343); type: functional;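 note: transfected cells were stimulated with diluted bursicon conditioned medium after compound addition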
# [18] = blockade of melanocortin 4 receptor signaling – cell-based, plate reader, cherry pick, counter-screen for LGR2 antagonist project, dose response (AID 743444); type: functional;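 note: transfected HEK 293 cells stimulated with alpha-MSH peptide; potency of inhibitors of the alpha-MSH evoked signal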
# [19] = reduced cellular PGC1a acetyl-lysine signal – cell-based, cherry-picked samples, dose response (AID 720514); type: functional;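 note: potency may reflect raised or lowered acetylation signal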
# [20] = A549 cell cytotoxicity, dose response, cytotoxicity control, plate reader, cherry-pick, antagonist series (AID 743412); type: functional, cell-based
# [21] = toxicity toward HepG2 liver cells – cell-based, plate reader, cherry-pick, antagonist series, cytotoxicity control, dose response (AID 743416); type: functional
# [22] = HEK-293T viability loss, compound-treated – cell-based, uHTS hits, cytotoxicity control for B/T-cell NF-kB inhibitor project, dose response (AID 489019); type: functional;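 note: IC50 reflects cytotoxicity as loss of cell viability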
# [23] = loss of viability in HepG2 cells – cell-based, CellTiter-Glo, cherry-picked, cytotoxicity control for Shn3 inhibitor project, dose response (AID 624134); type: functional
# [24] = reduction of Shn3 3'UTR-driven luciferase in osteoblasts – cell-based, Clone20 osteoblasts, firefly luciferase, cherry-picked, dose response (AID 624132); type: functional;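 note: firefly luciferase luminescence from reporter carrying the Shn3 3'UTR in osteoblasts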
# [25] = non-specific 3'UTR reporter inhibition in Clone20-Shn3RL – cell-based, Renilla luciferase, cherry-picked, counter-screen for Shn3 inhibitor project, dose response (AID 624133); type: functional
# [26] = test system: Jurkat; assay: blockers of NF-kB activation in T cells – Jurkat, luciferase reporter, luminescence, B- and T-cell, dose response (AID 489004); type: functional, cell-based; conditions: Homo sapiens;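 note: NF-kB luciferase reporter Jurkat cells stimulated with PMA plus ionomycin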
# [27] = test system: INS1; assay: INS-1E survival protection against cytokine death – cell-based, luminescence, retest, dose response (AID 449756); type: functional; conditions: Rattus norvegicus;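 note: cell death triggered by IL-1 beta plus TNF-alpha plus IFN-gamma mixture; protective hits raise ATP signal compared with cytokine alone wells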
# [28] = viability loss in HEK293 cells – cell-based, plate reader, cherry-picked samples, cytotoxicity control, dose response (AID 743446); type: functional
# [29] = cells; conditions: HEK293
# [30] = NIH3T3 cell viability loss – ATP luminescence, mouse fibroblasts, counter-screen, dose response (AID 2010); type: functional, cell-based;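 note: cells exposed to compound for about 90 hours before reading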
# [31] = viability of PTEN-deleted HCT116 cells – cell-based, HCT116 PTEN knockout, dose response (AID 1047); type: functional;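 note: HCT116 colon tumor cells with PTEN knocked out; cells exposed to compound for 60 hours before readout; potency for loss of cell viability measured by luminescence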
# [32] = viability of HCT116 lacking mutant beta-catenin – cell-based, human colon tumor, dose response (AID 1045); type: functional;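 note: HCT116 colon tumor cells with beta catenin knocked out; cells exposed to compound for 60 hours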
# [33] = HEK-293T cell viability reduction – luminescence, B-cell screen hits, cytotoxicity control for BCR NF-kB inhibitor project, dose response (AID 489021); type: functional, cell-based;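 note: HEK-293T cells carrying an NF-kB luciferase reporter; cells exposed to compound for about 14 hours before viability readout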
# [34] = viability loss of HPDE-C7K cells – cell-based, fluorescence, HTS, primary screen (AID 431); type: functional; conditions: Homo sapiens
# [35] = Trypanosoma cruzi growth suppression in host cells – NIH3T3 host cells, beta-gal luminescence, confirmation (AID 2044); type: functional, cell-based;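 note: intracellular parasites grown in NIH/3T3 mouse fibroblasts as host cells; luminescent beta-galactosidase reporter signal from transgenic T. cruzi replicating inside host cells; inhibitors lower the luminescence signal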
# [36] = HPDE-C7 pancreatic duct cell viability loss – fluorescence, HTS (AID 430); type: functional, cell-based; conditions: Homo sapiens
# [37] = microbe, parasite or virus in culture; type: functional; conditions: Mycobacterium tuberculosis
structure (smiles),measurement,setting,value
Cc1nc(NC(=O)/C=C/c2ccccc2)sc1C(=O)Nc1ccccc1Cl,IC50,[1],2.91 µM (active)
C#CCCCC(=O)NCCOCCOCCOc1ccc(N(C(=O)CCl)C(C(=O)NCCc2ccccc2)c2cccs2)cc1Cl (configuration not stated),AC50,[2],1.25 µM (active)
same,AC50,[3],1.18 µM (active)
same,AC50,[4],16.6 µM (active)
same,AC50,[5],0.993 µM (active)
same,AC50,[6],1.38 µM (active)
same,AC50,[7],4.54 µM (active)
same,AC50,[8],22.4 µM (active)
same,AC50,[9],4.9 µM (active)
CCOc1cc(CC(=O)N[C@@H](CC(C)C)c2ccccc2N2CCCCC2)ccc1C(=O)O [REPAGLINIDE],IC50,[10],0.136 µM (active)
same,IC50,[11],0.027 µM (active)
C=CCc1cccc(/C=N/NC(=O)CNc2cccc3ccccc23)c1O,EC50,[12],3.28 µM (active)
same,EC50,[13],> 150 µM (inactive)
same,IC50,[14],> 109 µM (not active)
same,IC50,[15],> 109 µM (not active)
CC(NC(N)=O)C12CC3CC(CC(C3)C1)C2 (configuration not stated),IC50,[16],> 100 µM (not active)
C#CC(=O)N(c1cccc(OC)c1)C(C(=O)NC1CCCC1)c1cccs1 (configuration not stated),AC50,[17],2.53 µM (active)
same,AC50,[18],2.25 µM (active)
same,AC50,[19],3.82 µM (active)
same,AC50,[20],8.46 µM (active)
same,AC50,[21],0.96 µM (active)
same,IC50,[22],28.4 µM (inactive)
same,AC50,[23],3.76 µM (active)
same,AC50,[24],3.8 µM (active)
same,AC50,[25],9.76 µM (active)
same,IC50,[26],0.25 µM (active)
same,AC50,[27],0.65 µM (active)
same,AC50,[28],1.65 µM (active)
Cc1ccc(C(C)C)c(OCCn2/c(=N/C#N)[nH]c3ccccc32)c1,AC50,[29],34 µM (active)
CCC(C)NC(=O)c1c(N)n(/N=C/c2ccccn2)c2nc3ccccc3nc12 (configuration not stated),EC50,[30],> 30 µM (not active)
same,EC50,[31],32.3 µM (active)
same,EC50,[32],30.2 µM (active)
same,IC50,[33],43.2 µM (inactive)
same,EC50,[34],6.39 µM (active)
same,EC50,[35],2.18 µM (active)
same,EC50,[36],4.73 µM (active)
same,CC50,[37],> 40 µM (active)

# — ChEMBL document CHEMBL1201862, “PubChem BioAssay data set” (2004)
